The target of one assay is T1, TrkB (Homo sapiens, UniProt Q16620).
T1 construct: The kinase domain of the human TrkB receptor (amino acids 526-838); His; purchased Invitrogen; host or cells: insect cells
As to the kind of experiment: TrkB tyrosine kinase inhibition, recombinant enzyme, polyGluTyr phosphorylation (33P-ATP filter assay). Format: biochemical. The settings on record: kinase domain of human TrkB (amino acids 526-838), His-fusion; 0.1 mg/ml PGT, 30 uM ATP, 1 hour at 30° C. Here is the method:
The ability of compounds of the invention to inhibit tyrosine kinase activity of TrkB may be measured using a recombinant enzyme in an assay that measures the ability of compounds to inhibit the phosphorylation of the exogenous substrate, polyGluTyr (PGT, 4:1). The kinase domain of the human TrkB receptor (amino acids 526-838) is expressed in insect cells as a histidine (His)-fusion protein and is commercially available from Invitrogen™. The enzyme assay is performed in a 96-well plate. Test compounds are first dissolved in dimethylsulfoxide (DMSO) and then serially-diluted in a 96-well plate. The serially-diluted compounds are transferred to the 96-well assay plate so that the final concentration of DMSO in the enzyme assay is 1.64%. All assay components are diluted in phosphorylation buffer (20 mm MOPS, 10 mM MgCl2, 1 mM EDTA, 0.015% Brij-35, 0.1 mg/ml BSA, 0.0025% Beta-Mercaptoethanol). The recombinant enzyme is added to the assay plate containing test compound and the reaction is initiated with a substrate solution containing a final concentration of 0.1 mg/ml PGT, 30 uM ATP, and 0.008 mCi/ml ^33P-gammaATP (3000 Ci/mmol)(Perkin Elmer™) After a 1 hour incubation at 30° C., the reaction is terminated with 10% TCA and incubated at 4° C. for 1 hour. The reaction is filtered onto a Unifilter® GF/C™ filter plate that has been presoaked with 0.1 M NaPyrophosphate. Microscint-20 is then added to the dried filter plate and the captured ^33P-phosphorylated PGT is quantitated on a microscintillation plate counter (TopCount·NXT™).

The next assay concerns the target T2, TrkA (Homo sapiens, UniProt P04629).
T2 construct: The kinase domain of the human TrkA receptor is expressed in Sf9 insect cells as a histidine (His)-fusion protein; His; made in house; host or cells: Sf9 insect cells (baculovirus)
As to the kind of experiment: TrkA tyrosine kinase inhibition, recombinant enzyme, polyGluTyr phosphorylation (33P-ATP filter assay). It counts as biochemical. The settings on record: kinase domain of human TrkA, His-fusion; 0.1 mg/ml PGT, 30 uM ATP, 1 hour at 30° C. From the text:
The ability of compounds of the invention to inhibit tyrosine kinase activity of TrkA may be measured using a recombinant enzyme in an assay that measures the ability of compounds to inhibit the phosphorylation of the exogenous substrate, polyGluTyr (PGT, 4:1). The kinase domain of the human TrkA receptor is expressed in Sf9 insect cells as a histidine (His)-fusion protein using a baculovirus expression system. The protein is purified from the lysates of these cells using an Ni-NTA affinity column. After the recombinant enzyme is purified, it is activated by incubation with cold ATP. The enzyme assay is performed in a 96-well plate. Test compounds are first dissolved in dimethylsulfoxide (DMSO) and then serially-diluted in a 96-well plate. The serially-diluted compounds are transferred to the 96-well assay plate so that the final concentration of DMSO in the enzyme assay is 1.64%. All assay components are diluted in phosphorylation buffer (20 mm MOPS, 10 mM MgCl2, 1 mM EDTA, 0.015% Brij-35, 0.1 mg/ml BSA, 0.0025% Beta-Mercaptoethanol). The recombinant enzyme is added to the assay plate containing test compound and the reaction is initiated with a substrate solution containing a final concentration of 0.1 mg/ml PGT, 30 uM ATP, and 0.008 mCi/ml ^33P-gammaATP (3000 Ci/mmol). After a 1 hour incubation at 30° C., the reaction is terminated with 10% TCA and incubated at 4° C. for 1 hour. The reaction is filtered onto a Unifilter® GF/C™ filter plate that has been presoaked with 0.1 M NaPyrophosphate. Microscint-20 is then added to the dried filter plate and the captured ^33P-phosphorylated PGT is quantitated on a microscintillation plate counter (TopCount·NXT™).

A word on the IC50: it is the concentration that gives 50% inhibition.

A value given as a limit tells only on which side of the number the result lay.

T1 sequence (Q16620 510-822): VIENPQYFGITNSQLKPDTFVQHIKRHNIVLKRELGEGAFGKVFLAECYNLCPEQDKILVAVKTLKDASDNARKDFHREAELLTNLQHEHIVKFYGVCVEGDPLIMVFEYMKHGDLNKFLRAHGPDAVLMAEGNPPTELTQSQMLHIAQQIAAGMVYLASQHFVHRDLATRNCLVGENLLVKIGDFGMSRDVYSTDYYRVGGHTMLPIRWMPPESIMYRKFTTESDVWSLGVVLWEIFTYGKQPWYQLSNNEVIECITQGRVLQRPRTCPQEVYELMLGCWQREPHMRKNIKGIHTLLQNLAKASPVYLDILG
T2 sequence (P04629 510-781 limits assumed): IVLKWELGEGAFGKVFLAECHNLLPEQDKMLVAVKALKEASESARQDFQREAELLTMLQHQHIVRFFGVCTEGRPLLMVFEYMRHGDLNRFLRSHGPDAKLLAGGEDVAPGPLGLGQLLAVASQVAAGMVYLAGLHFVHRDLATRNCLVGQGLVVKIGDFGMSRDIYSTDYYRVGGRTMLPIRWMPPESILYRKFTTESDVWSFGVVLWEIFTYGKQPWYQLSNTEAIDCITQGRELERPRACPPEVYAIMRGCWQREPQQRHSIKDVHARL

In the case of `CC(C)c1cc(C(=O)c2cccc(NC(=O)Nc3ccc(Cl)cc3Cl)c2)c2c(N)ncnn12` [Example 1, 1-{3-[(4-amino-7-isopropylpyrrolo [2,1-f][1,2,4]triazin-5-yl)carbonyl]phenyl}-3-(2,4-dichlorophenyl)urea], the IC50 at TrkB was found to be 1 nM.

Turning to `CC(C)c1cc(C(=O)c2cccc(NC(=O)Nc3ccccc3)c2)c2c(N)ncnn12` [Example 9, 1-{3-[(4-amino-7-isopropyl-pyrrolo[2,1-f][1,2,4]triazin-5-yl)carbonyl]phenyl}-3-phenylurea], the IC50 at TrkA is 2 nM; on TrkB, < 1 nM.

Take `CC(C)c1cc(C(=O)c2cccc(NC(=O)Nc3ccc(OCc4ccccc4)cc3)c2)c2c(N)ncnn12` [Example 33, 1-{3-[(4-amino-7-isopropyl-pyrrolo[2,1-f][1,2,4]triazin-5-yl)carbonyl]phenyl}-3-[4-(benzyloxy)phenyl]urea]: the figures for the IC50 on TrkA and at TrkB were 2 nM and 1 nM, respectively.

With `CC(C)c1cc(C(=O)c2cccc(NC(=O)NCC3CCCCC3)c2)c2c(N)ncnn12` [Example 37, 1-{3-[(4-amino-7-isopropyl-pyrrolo[2,1-f][1,2,4]triazin-5-yl)carbonyl]phenyl}-3-(cyclohexylmethyl)urea], the IC50 at TrkA came to 17 nM; at TrkB, 36 nM.

Turning to `CC(C)c1cc(C(=O)c2cccc(NC(=O)Nc3ccc4ccccc4c3)c2)c2c(N)ncnn12` [Example 46, 1-{3-[(4-amino-7-isopropyl-pyrrolo[2,1-f][1,2,4]triazin-5-yl)carbonyl]phenyl}-3-(2-naphthyl)urea], the concentration for half-maximal inhibition (IC50) on TrkA was < 1 nM; at TrkB, 1 nM.

Consider `CC(C)c1cc(C(=O)c2cccc(NC(=O)NCCCc3ccccc3)c2)c2c(N)ncnn12` [Example 61, 1-{3-[(4-amino-7-isopropyl-pyrrolo[2,1-f][1,2,4]triazin-5-yl)carbonyl]phenyl}-3-(3-phenylpropyl)urea], for which the values for the IC50 on TrkA and at TrkB were 21 nM and 8 nM, respectively.

Consider `CC(C)c1cc(C(=O)c2cccc(NC(=O)Nc3ccncc3)c2)c2c(N)ncnn12` [Example 63, 1-{3-[(4-amino-7-isopropyl-pyrrolo[2,1-f][1,2,4]triazin-5-yl)carbonyl]phenyl}-3-pyridin-4-ylurea], for which the IC50 at TrkA came to 9 nM; on TrkB, 15 nM.

With `CN(C)CCCc1cc(C(=O)c2cccc(NC(=O)Nc3ccc(Cl)cc3Cl)c2)c2c(N)ncnn12` [Example 67, 1-[3-({4-amino-7-[3-(dimethylamino)propyl]Pyrrolo[2,1-f][1,2,4]triazin-5-yl}carbonyl)phenyl]-3-(2,4-dichlorophenyl)urea], the values for the IC50 at TrkA and at TrkB were 3 nM and 1 nM, respectively.

These data come from patent publication US7514435B2, “Pyrrolotriazine kinase inhibitors” (Bristol-Myers Squibb Company, priority 2005, dated 2009).
